Data on 14 compounds can be found in US20080051418A1, “Arylalkanoic Acid Derivative” (priority 2004, published 2008).

One data set has as its target T1, PPARγ-RXRα heterodimer (Homo sapiens, UniProt P37231).
T1 construct: expressed in transfected cells; host or cells: CHO-K1
T1 sequence (P37231 1-505): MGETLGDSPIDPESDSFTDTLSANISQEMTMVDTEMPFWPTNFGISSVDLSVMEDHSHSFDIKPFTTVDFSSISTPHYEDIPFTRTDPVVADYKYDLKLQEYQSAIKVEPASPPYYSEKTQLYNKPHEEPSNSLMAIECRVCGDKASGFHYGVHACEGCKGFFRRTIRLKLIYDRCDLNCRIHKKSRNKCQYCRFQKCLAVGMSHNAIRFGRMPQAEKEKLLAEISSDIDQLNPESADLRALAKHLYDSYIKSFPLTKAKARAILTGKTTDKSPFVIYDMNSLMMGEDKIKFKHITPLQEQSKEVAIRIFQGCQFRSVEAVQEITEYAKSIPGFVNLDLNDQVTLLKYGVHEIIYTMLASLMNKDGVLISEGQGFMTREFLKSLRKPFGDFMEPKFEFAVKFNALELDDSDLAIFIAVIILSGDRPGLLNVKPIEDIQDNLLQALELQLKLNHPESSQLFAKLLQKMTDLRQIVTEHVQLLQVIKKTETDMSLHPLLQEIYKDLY
T1 sequence (P19793 1-462 partner): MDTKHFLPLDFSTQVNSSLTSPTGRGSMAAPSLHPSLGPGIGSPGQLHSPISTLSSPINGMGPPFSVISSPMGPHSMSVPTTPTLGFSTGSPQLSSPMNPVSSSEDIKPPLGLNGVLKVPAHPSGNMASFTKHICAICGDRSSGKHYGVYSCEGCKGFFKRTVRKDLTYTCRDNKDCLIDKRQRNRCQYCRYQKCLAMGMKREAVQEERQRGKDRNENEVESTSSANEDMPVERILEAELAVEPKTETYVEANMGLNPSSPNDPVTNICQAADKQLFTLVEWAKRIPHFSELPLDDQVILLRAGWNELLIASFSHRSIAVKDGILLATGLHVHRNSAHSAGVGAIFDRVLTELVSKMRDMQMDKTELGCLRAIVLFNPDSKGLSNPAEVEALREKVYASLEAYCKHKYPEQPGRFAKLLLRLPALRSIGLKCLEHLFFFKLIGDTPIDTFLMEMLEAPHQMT
The experiment in a line: PPARγ-RXRα heterodimer ligand activity (luciferase reporter). The settings on record: PPARγ:RXRα:4ERPP/CHO-K1 cells, 18-24 hr, concentration showing 50% of the maximum induction rate. Type of data set: cell-based. Put shortly:
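CHO-K1 cells carrying PPARγ, RXRα and a 4ERPP luciferase reporter, exposed to compound 18–24 h at 37 °C in Ham F12 with 0.1% fatty acid-free BSA. Luciferase induction expressed relative to untreated cells (= 1). EC50 is concentration giving 50% of maximal induction.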
(In a reporter assay the amount or activity of a reporter protein is the signal.)

For a further data set, the target named is T2, PPARδ-RXRα heterodimer (Homo sapiens, UniProt Q03181).
T2 construct: expressed in transfected cells
T2 sequence (Q03181 1-441): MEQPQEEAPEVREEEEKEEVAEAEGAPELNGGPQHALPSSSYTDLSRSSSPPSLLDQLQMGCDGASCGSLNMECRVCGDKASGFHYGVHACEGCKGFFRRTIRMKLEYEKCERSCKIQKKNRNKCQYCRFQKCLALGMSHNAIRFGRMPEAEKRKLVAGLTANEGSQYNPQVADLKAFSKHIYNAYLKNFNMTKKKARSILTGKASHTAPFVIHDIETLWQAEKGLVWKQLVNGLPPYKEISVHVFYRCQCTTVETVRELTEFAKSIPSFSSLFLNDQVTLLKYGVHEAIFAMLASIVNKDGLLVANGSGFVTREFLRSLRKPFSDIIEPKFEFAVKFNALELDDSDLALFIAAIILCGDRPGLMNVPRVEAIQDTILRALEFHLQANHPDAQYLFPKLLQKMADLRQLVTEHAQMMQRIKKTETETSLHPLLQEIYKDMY
T2 sequence (P19793 1-462 partner): T1 sequence (P19793 1-462 partner)
Kind of data set: PPARδ-RXRα heterodimer ligand activity (luciferase reporter). Type of data set: cell-based. The settings on record: transformant of Reference Example 9a of WO03/099793, 36-48 hr, concentration showing 50% of the maximum induction rate. On the procedure: The transformant described in Reference Example 9a of WO03/099793 was suspended in a DMEM medium [manufactured by Life technologies, Inc., US] containing 0.1% fatty acid-free bovine serum albumin (BSA) (manufactured by Wako Pure Chemical Industries, Ltd.), and inoculated to each well of a 96 well white plate [manufactured by Corning Coster Corporation, US] by 80 μl to 1×10^4 cells/well. Then, the test compound (20 μl) was added, and cultured under the conditions of 37° C., 5% CO2 for 36-48 hr. The medium was removed from the 96 well white plate, 40 μl of PicaGene LT 7.5 (manufactured by Wako Pure Chemical Industries, Ltd.) diluted 2-fold with HBSS (HANKS' BALANCED SALT SOLUTION) [manufactured by BIO WHITTAKER, US] was added and, after stirring, the luciferase activity was determined using the 1420 ARVO Multilabel Counter [manufactured by PerkinElmer, US].
The induction rate was calculated from the luciferase activity of each test compound based on the luciferase activity of the test compound non-administration group as 1. The test compound concentration and the induction rate were analyzed by PRISM [manufactured by GraphPad Software, Inc., US] to calculate EC50 value (compound concentration showing 50% of the maximum value of induction rate) of the test compound.

The subject of a further data set is KKA^y mice. Kind of data set: Blood glucose and blood lipid (triglyceride) lowering action in mice. In kind it is in vivo. The settings on record: Mus musculus, po, 96 h, 0.005% in powder diet, 4 days, non-administration group = 100%. The source says:
The test compound was mixed with a powder diet (CE-2, CLEA JAPAN, INC.) at a proportion of 0.005% (0.01% for the compound of Example 105) and freely given to KKA^y mice (9 to 12-week-old, 5 mice per group) which are obesity-insulin independent diabetes mellitus (type-2 diabetes) models, for 4 days. During this period, water was freely given. The blood was drawn from the orbital venous plexus. Glucose and triglyceride in the plasma separated from the blood were quantitated using L Type Wako Glu2 (Wako Pure Chemical Industries, Ltd.) and L Type Wako TG•H (Wako Pure Chemical Industries, Ltd.), respectively, according to an enzyme method.

Where [1] appears, read: lowering rate of plasma glucose, read-out: hypoglycemic action (%).
Setting [2] is: lowering rate of plasma triglyceride, read-out: hypolipidemic action (%).

Read-outs that look alike come from different tables or passages of the source.

One may read the EC50 as the midpoint of the concentration-response curve. High values mean weaker potency, low ones greater potency. What is called melting point is the temperature, or range, at which the solid turns liquid. As to `CC(C)Oc1ccc(CCCOc2cc(CCC(=O)O)n(C(C)C)n2)c(Oc2ncc(C(F)(F)F)cc2Cl)c1` [Example 142, 3-{3-[3-(2-{[3-chloro-5-(trifluoromethyl)pyridin-2-yl]oxy}-4-isopropoxyphenyl)propoxy]-1-isopropyl-1H-pyrazol-5-yl}propanoic acid], the melting point is 127.5 to 128.5 °C. At PPARγ-RXRα heterodimer, this compound had an EC50 of 7 nM. At PPARδ-RXRα heterodimer, the concentration for a half-maximal effect (EC50) amounted to 14 nM.

The compound `COCCOc1ccc(CCCOc2cc(CCC(=O)O)n(-c3ccccc3)n2)c(Oc2ncc(C(F)(F)F)cc2Cl)c1` [Example 147, 3-(3-{3-[2-{[3-chloro-5-(trifluoromethyl)pyridin-2-yl]oxy}-4-(2-methoxyethoxy)phenyl]propoxy}-1-phenyl-1H-pyrazol-5-yl)propanoic acid] yielded a melting point of 128 to 129 °C. Besides, the EC50 on PPARγ-RXRα heterodimer was 0.35 nM. The EC50 on PPARδ-RXRα heterodimer is 4.4 nM.

`COc1cccc(CC(=O)O)c1OCCCc1cc(OC(C)C)nn1Cc1ccc(F)cc1Cl` [Example 64, (2-{3-[1-(2-chloro-4-fluorobenzyl)-3-isopropoxy-1H-pyrazol-5-yl]propoxy}-3-methoxyphenyl)acetic acid]: the figures for the inhibition in vivo at 0.005 % with KKA^y mice (setting [1]) and in the data set on KKA^y mice (setting [2]) were 59% and 71%, respectively. In addition, the EC50 at PPARγ-RXRα heterodimer stood at 11 nM; at PPARδ-RXRα heterodimer, 93 nM.

For `CC(C)Oc1ccc(CCCOc2cc(CCC(=O)O)n(-c3ccccc3)n2)c(OCc2ccc(C(F)(F)F)cc2)c1` [Example 166, 3-{3-[3-(4-isopropoxy-2-{[4-(trifluoromethyl)benzyl]oxy}phenyl)propoxy]-1-phenyl-1H-pyrazol-5-yl}propanoic acid], the melting point is 118 to 119 °C. Also, a half-maximal effect on PPARγ-RXRα heterodimer (EC50) was put at 24 nM. On PPARδ-RXRα heterodimer, the midpoint of the response, the EC50, lay at 2.2 nM.

For `CC(C)Oc1ccc(CCCOc2cc(CCC(=O)O)n(C)n2)c(Oc2ncc(C(F)(F)F)cc2Cl)c1` [Example 139, 3-{3-[3-(2-{[3-chloro-5-(trifluoromethyl)pyridin-2-yl]oxy}-4-isopropoxyphenyl)propoxy]-1-methyl-1H-pyrazol-5-yl}propanoic acid], the melting point is 88 to 89 °C. This compound came in with a half-maximal effective concentration (EC50) on PPARγ-RXRα heterodimer of 9 nM. On PPARδ-RXRα heterodimer, this compound registered an EC50 of 17 nM.

Regarding `COc1cccc(CC(=O)O)c1OCCCc1cc(OC(C)C)nn1Cc1ccc(Cl)cc1C` [Example 68, (2-{3-[1-(4-chloro-2-methylbenzyl)-3-isopropoxy-1H-pyrazol-5-yl]propoxy}-3-methoxyphenyl)acetic acid], the melting point lay within 108 to 109 °C. Moreover, the EC50 on PPARγ-RXRα heterodimer came out at 6 nM. The compound also showed an EC50 on PPARδ-RXRα heterodimer of 74 nM.

In the case of `CCn1cc(CC(=O)O)c(OCCCc2ccc(OC(C)C)cc2Oc2ncc(C(F)(F)F)cc2Cl)n1` [Example 117, {3-[3-(2-{[3-chloro-5-(trifluoromethyl)pyridin-2-yl]oxy}-4-isopropoxyphenyl)propoxy]-1-ethyl-1H-pyrazol-4-yl}acetic acid], the inhibition in vivo at 0.005 % was 49% in the data set on KKA^y mice (setting [1]) and 18% in the data set on KKA^y mice (setting [2]). Also, the EC50 is 0.78 nM on PPARγ-RXRα heterodimer and 4.3 nM on PPARδ-RXRα heterodimer.

In the case of `CC(C)Cn1nc(OCCCc2ccc(OC(C)C)cc2Oc2ncc(C(F)(F)F)cc2Cl)cc1CCC(=O)O` [Example 143, 3-{3-[3-(2-{[3-chloro-5-(trifluoromethyl)pyridin-2-yl]oxy}-4-isopropoxyphenyl)propoxy]-1-isobutyl-1H-pyrazol-5-yl}propanoic acid], the melting point was in the range of 71 to 73 °C. On PPARγ-RXRα heterodimer, this compound came in with an EC50 of 1.4 nM. For the same compound, the EC50 at PPARδ-RXRα heterodimer worked out at 11 nM.

In the case of `CC(C)Oc1ccc(CCCCOc2cc(CCC(=O)O)n(-c3ccccc3)n2)c(Oc2ncc(C(F)(F)F)cc2Cl)c1` [Example 156, 3-{3-[4-(2-{[3-chloro-5-(trifluoromethyl)pyridin-2-yl]oxy}-4-isopropoxyphenyl)butoxy]-1-phenyl-1H-pyrazol-5-yl}propanoic acid], the melting point lay within 75 to 77 °C. The midpoint of the response on PPARγ-RXRα heterodimer, the EC50, lay at 0.99 nM. On PPARδ-RXRα heterodimer, it took 3.4 nM to reach a half-maximal effect (EC50).

In turn, `CC(C)Oc1ccc(CCCOc2cc(CCC(=O)O)n(-c3ccccc3)n2)c(OCc2ccc(Cl)cc2Cl)c1` [Example 160, 3-[3-(3-{2-[(2,4-dichlorobenzyl)oxy]-4-isopropoxyphenyl}propoxy) -1-phenyl-1H-pyrazol-5-yl]propanoic acid] gave a melting point of 139 to 141 °C. In addition, at PPARγ-RXRα heterodimer, it took 5.3 nM to reach a half-maximal effect (EC50). The compound further came in with an EC50 at PPARδ-RXRα heterodimer of 6 nM.

`COCOc1ccc(CCCOc2nn(Cc3ccccc3)cc2CC(=O)O)c(Oc2ncc(C(F)(F)F)cc2Cl)c1` [Example 112, (3-{3-[2-{[3-chloro-5-(trifluoromethyl)pyridin-2-yl]oxy}-4-(methoxymethoxy)phenyl]propoxy}-1-benzyl-1H-pyrazol-4-yl)acetic acid] gave a melting point of 108 to 109 °C. At PPARγ-RXRα heterodimer, this compound returned a concentration giving a half-maximal response (EC50) of 0.57 nM. Moreover, on PPARδ-RXRα heterodimer, the EC50 turned out to be 57 nM.

Consider `CCn1nc(OCCCCc2ccc(OC(C)C)cc2Oc2ncc(C(F)(F)F)cc2Cl)cc1CCC(=O)O` [Example 158, 3-{3-[4-(2-{[3-chloro-5-(trifluoromethyl)pyridin-2-yl]oxy}-4-isopropoxyphenyl)butoxy]-1-ethyl-1H-pyrazol-5-yl}propanoic acid], for which the melting point lay in the range of 129 to 130 °C. The compound further registered a half-maximal effective concentration (EC50) on PPARγ-RXRα heterodimer of 7.1 nM. The same compound yielded an EC50 on PPARδ-RXRα heterodimer of 17 nM.

Take `COc1cccc(CC(=O)O)c1OCCCc1cc(OC(C)C)nn1Cc1ccc(C(F)(F)F)cc1Cl` [Example 66, [2-(3-{1-[2-chloro-4-(trifluoromethyl)benzyl]-3-isopropoxy-1H-pyrazol-5-yl}propoxy)-3-methoxyphenyl]acetic acid]: the melting point was in the range of 98 to 99 °C. A half-maximal effect at PPARγ-RXRα heterodimer (EC50) was put at 1.2 nM. This compound also registered a half-maximal effective concentration (EC50) on PPARδ-RXRα heterodimer of 2.8 nM.

`CC(C)Oc1ccc(CCCOc2ncccc2CC(=O)O)c(Oc2ncc(Cl)cc2Cl)c1` [Example 121, [2-(3-{2-[(3,5-dichloropyridin-2-yl)oxy]-4-isopropoxyphenyl}propoxy)pyridin-3-yl]acetic acid] yielded a melting point of 84 to 85 °C. The same compound had an EC50 on PPARγ-RXRα heterodimer of 3.3 nM. The same compound gave a 50% effective concentration (EC50) on PPARδ-RXRα heterodimer of 7.6 nM.
